Publication PMC12977544, “Phenotypic high-throughput screening identifies modulators of gut microbial choline metabolism” (mBio, 2026)

Legend:
[1] = system: Hungatella hathewayi cultures; design: method as in PMID 31059309; settings: cited from earlier work
[2] = system: choline transporters; design: method as in PMID 33271015; settings: read-out: IC50 of choline transport in human cells that overexpress choline transporters; cited from earlier work
[3] = biological target: T1, purified CutC (choline trimethylamine-lyase) (Oleidesulfovibrio alaskensis, UniProt Q30W70); assay: In vitro CutC activity assay coupled to YADH/NADH (absorbance 340 nm); format: biochemical, Desulfovibrio desulfuricans G20; settings: 5 nM CutC, 200 µM choline, 20°C, anaerobic
T1 construct: made in house
T1 sequence (Q30W70 53-846): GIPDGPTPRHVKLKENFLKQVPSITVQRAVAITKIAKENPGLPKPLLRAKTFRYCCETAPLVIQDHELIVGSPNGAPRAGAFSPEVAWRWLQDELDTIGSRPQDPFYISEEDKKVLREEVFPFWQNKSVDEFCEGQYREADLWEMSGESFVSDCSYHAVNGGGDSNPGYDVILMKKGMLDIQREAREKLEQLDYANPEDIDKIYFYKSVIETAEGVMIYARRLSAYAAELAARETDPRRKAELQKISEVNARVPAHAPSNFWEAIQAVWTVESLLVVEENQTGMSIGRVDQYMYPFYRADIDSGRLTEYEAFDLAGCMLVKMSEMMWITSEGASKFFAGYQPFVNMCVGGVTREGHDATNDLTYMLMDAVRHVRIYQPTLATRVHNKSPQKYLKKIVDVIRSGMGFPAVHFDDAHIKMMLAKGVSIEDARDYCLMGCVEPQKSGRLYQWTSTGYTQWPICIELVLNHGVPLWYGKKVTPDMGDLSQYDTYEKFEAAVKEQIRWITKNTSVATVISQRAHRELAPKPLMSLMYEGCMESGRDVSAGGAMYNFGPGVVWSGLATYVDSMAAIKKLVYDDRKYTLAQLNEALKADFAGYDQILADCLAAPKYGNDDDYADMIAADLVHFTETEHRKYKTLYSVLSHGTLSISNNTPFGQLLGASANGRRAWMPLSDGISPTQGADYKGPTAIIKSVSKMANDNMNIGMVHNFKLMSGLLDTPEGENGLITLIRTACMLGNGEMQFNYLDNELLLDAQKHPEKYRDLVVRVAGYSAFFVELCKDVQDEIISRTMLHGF
Description: To investigate if our compounds were inhibiting CutC directly, we tested their activity toward the purified enzyme. The activity of CutC was determined using a coupled enzyme assay, where the acetaldehyde product from the cleavage of choline to TMA is reduced to ethanol by yeast alcohol dehydrogenase (YADH) using nicotinamide adenine dinucleotide (NADH) as a cofactor. The consumption of NADH results in a change in absorption at 340 nm, and this rate of change of absorption was used to calculate the initial rates of reaction of CutC in the presence of varying concentrations of inhibitors ([14], [65]).
CutC and CutD enzymes from Desulfovibrio desulfuricans G20 were purified, CutC was activated by incubation with CutD, and the amount of glycyl radical installation was quantified as previously described ([15]). The IC50 of compounds was determined in an in vitro CutC activity assay, where CutC activity is coupled to the NADH-dependent enzymatic reduction of acetaldehyde by YADH ([15]). Briefly, assays were conducted in an anaerobic chamber (MBraun) under N2 atmosphere at 20°C. In 50 mM potassium phosphate buffer (pH 8.0, 50 mM KCl), 40 µM of CutD and 150 µM of sodium dithionite were incubated for 20 min before the addition of 200 µM of SAM and 20 µM of CutC monomer. The mixture was incubated for 1 h to activate the glycyl radical enzyme, after which the activated CutC mixture was diluted […] in 50 mM potassium phosphate buffer (pH 8.0, 50 mM KCl). A master mix containing 200 µM NADH, 0.4 µM YADH (Sigma), and the diluted CutC mixture (5 nM final concentration in assay) was prepared and aliquoted into 96-well plates (180 µL per well). Ten microliters of inhibitor or DMSO vehicle was added, followed by 10 µL of aqueous choline chloride solution (final concentration 200 µM). Absorbance was measured at 340 nm immediately after addition of all assay components, with measurements taken every 20 s for 10 min. Initial rates were calculated from absorbance measurements and fitted to Michaelis–Menten equation using nonlinear regression in GraphPad Prism 10 (v. 10.4.0). Background activity was subtracted using no substrate controls, and initial rates for each inhibitor concentration were normalized to no inhibitor controls. IC50 values were obtained by plotting normalized activity values against the logarithm of inhibitor concentration and fitting to a nonlinear regression model in GraphPad Prism 10 (v. 10.4.0).

[4] = system: E. coli MS 200-1; assay: Growth inhibition of E. coli cultures in choline- and glycerol-containing minimal media; format: cell-based, Escherichia coli MS 200-1
Description: To validate the potential hits from the HTS, we tested the 178 compounds for inhibition of growth of E. coli MS 200-1 in glycerol minimal media at 30 µg/mL, following up with those without activity. […]. We then determined EC50 values for inhibition of TMA production from choline by bacterial cultures incubated with [trimethyl-d9]choline in phosphate-buffered saline. Of the 178 compounds tested in both growth and TMA inhibition assays, 20 inhibited TMA generation by E. coli MS 200-1 without growth-inhibitory effects in glycerol minimal medium.
NCE media was adapted based on the “no carbon E” media as previously described ([14]), and contains 29 mM potassium phosphate monobasic, 29 mM potassium phosphate dibasic, 17 mM ammonium sodium phosphate dibasic, 40 mM sodium fumarate dibasic, 0.1% (wt/vol) casamino acids, and either 20 mM choline chloride or 3 g/L glycerol. This mixture was supplemented with 1 mM magnesium sulfate, 1% ATCC vitamin supplement, and 1% ATCC trace mineral supplement.

[5] = system: choline transport into ∆cutC E. coli MS 200-1 cells; assay: [14C]-choline uptake; format: cell-based, Escherichia coli MS 200-1 ∆cutC; settings: 10 µM
Description: The ∆cutC strain of E. coli was used in this assay to prevent the formation of volatile radioactive TMA. When cells were grown aerobically, incubation with compound 42 increased choline uptake by 15 times compared to vehicle treatment (Fig. S2B).
E. coli MS 200-1 ∆cutC was grown either aerobically or anaerobically in LB medium supplemented with 1 mM choline chloride. Cells were pelleted and resuspended in fresh PBS after overnight growth to OD600 of 1 and aliquoted into microcentrifuge tubes. […] 5 µM [^14C] choline was added to the cells and left to incubate for 15 mins aerobically. At the end of the incubation period, cells were washed with PBS three times by centrifugation at 3,000 × g for 5 min and resuspended in equal volume of PBS. The resulting cell resuspension in PBS was transferred to a scintillation vial, where 10 mL of liquid scintillation cocktail was added and mixed. Radioactivity was counted using a Beckman Coulter LS6000 liquid scintillation counter for 1 min per sample.

[6] = system: cut gene cluster expression in E. coli MS 200-1; assay: Transcription of the cut gene cluster after choline induction (Nanostring nCounter); settings: 10 µM, NCE glycerol, 1 mM choline induction, 1.5 h
[7] = system: TMAO production in vivo; design: method as in PMID 30082863; settings: cited from earlier work
[8] = system: high affinity choline transporter (HAChT), choline transport in rat synaptosomes; design: method as in PMID 2066974; settings: cited from earlier work
[9] = cited from earlier work
[10] = system: Proteus mirabilis lysates; design: method as in PMID 30082863; settings: read-out: IC50 against Proteus mirabilis lysates; cited from earlier work

**Q.** Which IC50 [1] does the source give for `C[N+](C)(CCO)CCCCCCOc1cccc(I)c1` [Compound 4] here?
**A.** 15000 nM

**Q.** And the IC50 [2]?
**A.** 44 nM

**Q.** Which results are given for `Cc1ccc(-c2cc(C(=O)NCCCN3CCCCCC3)c(C)[nH]2)cc1C` [Compound 42]?
**A.** IC50 [3]: 24000 nM; Inhibition of E. coli growth on choline ([4]; choline minimal medium, 7 h, 6: 125–500 µM, 42: 30–100 µM): dose-dependent; Effect on growth of E. coli MS 200-1 in glycerol medium ([4]; glycerol NCE minimal medium): not observed in glycerol; Increase of choline uptake compared to vehicle ([5]; cells grown aerobically): 15 times; Increase of choline uptake compared to vehicle ([5]; cells grown anaerobically): 1.2 times; Effect on cut gene cluster expression vs DMSO control [6]: did not significantly change gene expression

**Q.** With `C[N+](C)(CF)CCO` [FMC, fluoromethylcholine] as the molecule, how does the “EC50 of inhibition of TMAO production in vivo” value [7] read?
**A.** 3.4 mg/kg

**Q.** Which IC50 [8] does the source give for `C[N+](C)(CI)CCO` [IMC, Iodomethylcholine] here?
**A.** 490 nM

**Q.** What about the “EC50 of inhibition of TMAO production in vivo” value [7] of the same molecule?
**A.** 45 mg/kg

**Q.** What about the “Concentration in mice cecum and colon samples” value ([9]; dosed at 100 mg/kg, after 24 h) of the same molecule?
**A.** around 6 mM

**Q.** And the “Level of inhibitor and its metabolite iodomethylbetaine in serum” value ([9]; mouse, in vivo)?
**A.** low micromolar levels

**Q.** And the IC50 [10]?
**A.** 1.5 nM
